Data on 2 molecules can be found in patent US20230285292A1, “COMPOSITIONS AND METHODS OF USING A PLA2-RESPONSIVE DRUG DELIVERY SYSTEM” (THE TRUSTEES OF THE UNIVERSITY OF PENNSYLVANIA, priority 2020, published 2023).

SMILES strings stand for the structures.

The test system of data set [1] is load-induced OA knee joints. The data set is described as follows: Single load-induced PTOA model, histology and TUNEL. The class given is in vivo, mouse. The settings on record: 6 N or 9 N loading, two weeks. From the text:
To induce mouse OA that is noninvasive and mimics post-traumatic OA in human patients, male mice (2 months old) were subjected mechanic loading at the right knees and sham loading at left knees. Briefly, under anesthesia, the right tibiae were positioned with the knee downward in deep flexion between custom-made cups and subjected to axial compressive loads with a peak force of 6 or 9 Newtons (N) with a 0.5 N preload force to maintain the limb in position between loading cycles. Cyclic loads were applied for 0.34 s with a rise and fall time each of 0.17 s and a baseline hold time of 10 s between cycles for 60 cycles. The uninjured left knees were used as controls. […] For DMM surgical OA model, the first injection was performed immediately after surgery. Injections were then repeated every 2 weeks for 2 or 4 months. In total, there are 4 injections for the 2 months group and 8 injections for 4 months group. For load-induced OA model, injections (i.a.) were performed immediately and at 48 hours after loading. There are 2 injections in total for each mouse in this model. […] Cartilage injury length was measured in Safranin 0/Fast green stained paraffin sections. […] According to these histological changes, it is possible to identify the demarcation between the normal and injured cartilage tissue, and the length of the cartilage lesion range was measured. […]

Data set [2] can be described thus: Toxicity in mice after 2-month serial intra-articular injections. The class given is in vivo, mouse. From the text:
After 2 months treatment for DMM mice, some major organs (kidney, liver, lung, heart, and spleen) and blood were collected. Tissue sections were stained with hematoxylin and eosin (H&E) to assess the effects of different treatment on mouse organ morphology.

Data set [3] deals with DMM-induced OA knee joints. The data set is described as follows: DMM surgery-induced OA model, histology and microCT. Format: in vivo, mouse. The note with it: for morphology and structure of articular cartilage / cartilage degeneration: intra-articular injection once every two weeks starting immediately after DMM, 2 and 4 months. From the text: To induce mouse OA that mimics chronic OA in human patients, male mice at 3 months of age were subjected to DMM surgery at right knees and sham surgery at left knees. Briefly, in DMM surgery, the joint capsule was opened immediately after anesthesia and the medial meniscotibial ligament was cut to destabilize the meniscus without damaging other tissues. In Sham surgery, the joint capsule was opened in the same fashion but without any further damage. […] For DMM surgical OA model, the first injection was performed immediately after surgery. Injections were then repeated every 2 weeks for 2 or 4 months. In total, there are 4 injections for the 2 months group and 8 injections for 4 months group. For load-induced OA model, injections (i.a.) were performed immediately and at 48 hours after loading. There are 2 injections in total for each mouse in this model. After euthanasia, mouse knee joints were harvested and fixed in 4% paraformaldehyde overnight followed by decalcification in 0.5 M EDTA (pH 7.4) for 4 weeks prior to paraffin embedding. A serial of 6 μm-thick sagittal sections (about 100) were cut across the entire medial compartment of the joint until ACL junction. […] The final measurement is an average of these three sections. We defined uncalcified cartilage as the area from articular surface to the tide mark and calcified cartilage as the area from tide mark to cement line. The method to measure Mankin Score was described previously(37). Briefly, two sections within every consecutive six sections in the entire section set for each knee were stained with Safranin 0/Fast green and scored by two blinded observers. Each knee received a single score representing the maximal score of its sections. Synovitis score grading was carried out in 6-μm paraffin sections of sagittal mouse knee sections stained with H&E. The following basic morphological parameters of synovitis were included: (i) hyperplasia/enlargement of synovial lining layer, (ii) degree of inflammatory infiltration and (iii) activation of resident cells/synovial stroma, including fibroblasts, endothelial cells, histiocytes, macrophages, and multinucleated giant cells. All parameters are graded from 0 (absent), 1 (slight), 2 (moderate) to 3 (strong positive). The distal femur of mouse knee joints was scanned at a 6-μm isotropic voxel size with a microCT 35 scanner (Scanco Medical AG, Brüttisellen, Switzerland). All images were smoothened by a Gaussian filter (sigma=1.2, support=2.0). Measurement of SBP thickness was described previously(39). […] The region of interest (ROI) was circled and the average SBP thickness within ROI is calculated by average grey value/255*max scale bar value. […]

The subject of data set [4] is DMM-induced OA knee joints. The data set is described as follows: DMM surgery-induced OA model, von Frey pain analysis. The class given is in vivo, mouse. The settings on record: DMM knees; from 2 weeks post-surgery throughout experimental period. From the text:
To induce mouse OA that mimics chronic OA in human patients, male mice at 3 months of age were subjected to DMM surgery at right knees and sham surgery at left knees. Briefly, in DMM surgery, the joint capsule was opened immediately after anesthesia and the medial meniscotibial ligament was cut to destabilize the meniscus without damaging other tissues. In Sham surgery, the joint capsule was opened in the same fashion but without any further damage. […] For DMM surgical OA model, the first injection was performed immediately after surgery. Injections were then repeated every 2 weeks for 2 or 4 months. In total, there are 4 injections for the 2 months group and 8 injections for 4 months group. For load-induced OA model, injections (i.a.) were performed immediately and at 48 hours after loading. There are 2 injections in total for each mouse in this model. The knee joint pain after DMM surgery or loading injury was evaluated in mice weekly before and after surgery using von Frey filaments as described previously(38). An individual mouse was placed on a wire-mesh platform (Excellent Technology Co.) under a 4×3×7 cm cage to restrict their move. […] The threshold force required to elicit withdrawal of the paw (median 50% withdrawal) was determined five times on each hind paw with sequential measurements separated by at least 5 minutes.

Data set [5] has as its system load-induced OA knee joints. The data set is described as follows: Single load-induced PTOA model, von Frey pain analysis. The class given is in vivo, mouse. The settings on record: 6 N or 9 N loading. An excerpt:
To induce mouse OA that is noninvasive and mimics post-traumatic OA in human patients, male mice (2 months old) were subjected mechanic loading at the right knees and sham loading at left knees. Briefly, under anesthesia, the right tibiae were positioned with the knee downward in deep flexion between custom-made cups and subjected to axial compressive loads with a peak force of 6 or 9 Newtons (N) with a 0.5 N preload force to maintain the limb in position between loading cycles. Cyclic loads were applied for 0.34 s with a rise and fall time each of 0.17 s and a baseline hold time of 10 s between cycles for 60 cycles. The uninjured left knees were used as controls. […] For DMM surgical OA model, the first injection was performed immediately after surgery. Injections were then repeated every 2 weeks for 2 or 4 months. In total, there are 4 injections for the 2 months group and 8 injections for 4 months group. For load-induced OA model, injections (i.a.) were performed immediately and at 48 hours after loading. […] The knee joint pain after DMM surgery or loading injury was evaluated in mice weekly before and after surgery using von Frey filaments as described previously(38). […] The threshold force required to elicit withdrawal of the paw (median 50% withdrawal) was determined five times on each hind paw with sequential measurements separated by at least 5 minutes.

Data set [6] deals with chronic constriction of the sciatic nerve. The note with it: intrathecal, given 1 day after chronic constriction of the sciatic nerve, only under daily repeated dosing; cited from earlier work.

Regarding `CCCCCCCCCCCCCCCCSCC(COP(=O)([O-])OCC[N+](C)(C)C)NC(=O)CCCCCCCCCCCCCCC` (centres unmarked) [sPLA2i, 1-Palmitylthio-2-palmitoylamido-1,2-dideoxy-sn-glycero-3-phosphorylcholine], in data set [1], the “length of cartilage injury” value was “significant damage areas” and the synovitis scores result is “significant synovitis”. For the same molecule, in data set [2] (2-month serial injections), the “blood parameters (hematology, renal and liver function, serum electrolytes)” value is “no significant difference”. Besides, the “histopathology of liver, spleen, kidney, lung, heart and knee joint” value in data set [2] (two months after serial intra-articular injections) is “did not observe any histopathological abnormalities”. The “increase of SBP thickness at femoral medial site compared to sham joints” value in data set [3] (4 months after DMM surgery) worked out at 1.31 fold. In addition, the “increase in synovitis score compared with sham knees” value in data set [3] (DMM knees, 2-month treatment) is listed as “more than 10 fold”. Besides, the “morphology and structure of articular cartilage / cartilage degeneration” value in data set [3] is given as “did not have a protective effect”. The “morphology and structure of articular cartilage / cartilage degeneration” value in data set [3] (listed as free sPLA2i) is on record as “not observed”. In addition, in data set [4], the “mechanical threshold / OA pain (von Frey)” value is on record as “did not alter the OA pain”. Also, the “pain threshold / OA pain (von Frey)” value in data set [5] is listed as “experienced OA pain”.
As to `CCCCC/C=C\C/C=C\C/C=C\C/C=C\CCCC(=O)C(F)(F)F` [AACOCF3], the behavioral sensitivity entry in data set [6] is recorded as “reduces behavioral sensitivity”.
